Test results published in PMC9929631 (The EMBO Journal, 2023).
Entries after “also recorded” stand apart in the source; their conditions may differ. Read-outs that look alike come from different tables or passages of the source. Numbered stars: 1 amine (or outer) side, 2 acyl side, 3 side chain; on linkers, the order of the positions; unused ones are H or OH. Square brackets hold non-standard residues; d marks the D form. Ends that are not written are not given here. Peptide text beside a SMILES is read from it. * marks the point of attachment. X1 = N=c1ccc2c(-c3ccccc3C(=O)*)c3ccc(N)c(S(=O)(=O)O)c3oc-2c1S(=O)(=O)O; NMeGABA = CN(CCCC(=O)[*:2])[*:1]

Tests used:
[1] = tested on: DDB1‐DCAF12, DCAF12 Lys108Ala mutant; type: binding, human; conditions: TR-FRET titration, n = 3
[2] = tested on: DDB1‐DCAF12, DCAF12 His144Ala mutant; type: binding, human; conditions: TR-FRET titration, n = 3
[3] = tested on: DDB1‐DCAF12, DCAF12 Arg344Ala mutant; type: binding, human; conditions: TR-FRET titration, n = 3
[4] = tested on: DDB1‐DCAF12, DCAF12 Arg256Ala mutant; type: binding, human; conditions: TR-FRET titration, n = 3
[5] = tested on: DDB1‐DCAF12, DCAF12 Arg203Ala mutant; type: binding, human; conditions: TR-FRET titration, n = 3
DDB1‐DCAF12 [6] = molecular target: T1, DDB1‐DCAF12 (Homo sapiens, UniProt Q16531+Q5T6F0); experiment: TR-FRET competition assay; type: binding
T1 sequence (Q5T6F0 whole entry): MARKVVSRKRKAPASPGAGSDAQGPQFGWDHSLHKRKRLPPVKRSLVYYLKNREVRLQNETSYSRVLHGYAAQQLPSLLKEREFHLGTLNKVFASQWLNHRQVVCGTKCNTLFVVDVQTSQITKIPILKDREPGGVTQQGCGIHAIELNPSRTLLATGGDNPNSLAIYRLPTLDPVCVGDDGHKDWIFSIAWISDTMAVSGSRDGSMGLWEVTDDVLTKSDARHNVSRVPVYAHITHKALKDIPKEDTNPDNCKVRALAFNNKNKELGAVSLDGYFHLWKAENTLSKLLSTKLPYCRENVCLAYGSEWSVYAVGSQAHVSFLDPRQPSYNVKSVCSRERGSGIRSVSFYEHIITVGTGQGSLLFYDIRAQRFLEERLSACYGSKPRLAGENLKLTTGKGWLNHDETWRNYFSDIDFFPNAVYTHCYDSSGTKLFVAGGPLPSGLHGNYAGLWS
T1 sequence (Q16531 whole entry partner): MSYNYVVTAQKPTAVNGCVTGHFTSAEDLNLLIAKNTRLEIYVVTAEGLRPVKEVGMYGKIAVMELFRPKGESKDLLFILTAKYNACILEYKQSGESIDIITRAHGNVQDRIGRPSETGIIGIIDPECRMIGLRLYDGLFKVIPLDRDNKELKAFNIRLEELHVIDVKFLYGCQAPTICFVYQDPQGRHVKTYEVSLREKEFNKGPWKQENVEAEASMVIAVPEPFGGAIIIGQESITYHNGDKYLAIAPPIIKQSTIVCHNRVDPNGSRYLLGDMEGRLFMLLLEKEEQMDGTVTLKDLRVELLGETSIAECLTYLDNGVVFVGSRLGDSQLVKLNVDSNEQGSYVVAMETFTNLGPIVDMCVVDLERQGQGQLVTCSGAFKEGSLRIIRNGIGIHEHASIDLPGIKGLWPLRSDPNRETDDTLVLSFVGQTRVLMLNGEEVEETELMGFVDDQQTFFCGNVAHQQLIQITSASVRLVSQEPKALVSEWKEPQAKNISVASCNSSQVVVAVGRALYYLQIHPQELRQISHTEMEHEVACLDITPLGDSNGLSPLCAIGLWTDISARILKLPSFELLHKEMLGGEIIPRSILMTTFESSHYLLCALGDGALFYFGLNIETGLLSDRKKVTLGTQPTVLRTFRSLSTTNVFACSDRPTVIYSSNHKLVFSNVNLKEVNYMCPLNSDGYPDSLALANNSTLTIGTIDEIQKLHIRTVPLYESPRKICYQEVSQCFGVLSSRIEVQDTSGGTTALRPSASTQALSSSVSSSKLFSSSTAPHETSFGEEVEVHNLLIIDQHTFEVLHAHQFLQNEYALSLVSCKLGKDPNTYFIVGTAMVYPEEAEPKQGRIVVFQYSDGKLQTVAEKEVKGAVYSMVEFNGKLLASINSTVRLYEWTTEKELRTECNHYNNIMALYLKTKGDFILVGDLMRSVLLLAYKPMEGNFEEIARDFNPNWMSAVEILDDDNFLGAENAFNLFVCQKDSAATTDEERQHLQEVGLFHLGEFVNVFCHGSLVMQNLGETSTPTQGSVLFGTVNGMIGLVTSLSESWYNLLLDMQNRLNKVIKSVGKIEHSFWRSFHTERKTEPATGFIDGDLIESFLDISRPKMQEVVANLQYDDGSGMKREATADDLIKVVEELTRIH

DDB1‐DCAF12 [7] = molecular target: T1, DDB1‐DCAF12; experiment: In vitro pull-downs with strep; type: binding; conditions: strep(II)-tagged DDB1-DCAF12, untagged CCT5; Coomassie-stained SDS–PAGE
[8] = molecular target: biotinylated strep(II)-avi-DDB1-strep(II)-DCAF12 complex (wild type) (homo sapiens) (UniProt Q16531); experiment: FRET or BRET
Sequence of biotinylated strep(II)-avi-DDB1-strep(II)-DCAF12 complex (wild type) (homo sapiens) (Q16531 whole entry, chain 1 of 2): as the sequence (Q16531 whole entry partner) above
Sequence of biotinylated strep(II)-avi-DDB1-strep(II)-DCAF12 complex (wild type) (homo sapiens) (Q5T6F0 whole entry, chain 2 of 2, further chain): as the sequence (Q5T6F0 whole entry) above

Sequence of CCT5_(10) peptide Glu532Ala (P48643 whole entry, looked up, change not shown, tested part not stated): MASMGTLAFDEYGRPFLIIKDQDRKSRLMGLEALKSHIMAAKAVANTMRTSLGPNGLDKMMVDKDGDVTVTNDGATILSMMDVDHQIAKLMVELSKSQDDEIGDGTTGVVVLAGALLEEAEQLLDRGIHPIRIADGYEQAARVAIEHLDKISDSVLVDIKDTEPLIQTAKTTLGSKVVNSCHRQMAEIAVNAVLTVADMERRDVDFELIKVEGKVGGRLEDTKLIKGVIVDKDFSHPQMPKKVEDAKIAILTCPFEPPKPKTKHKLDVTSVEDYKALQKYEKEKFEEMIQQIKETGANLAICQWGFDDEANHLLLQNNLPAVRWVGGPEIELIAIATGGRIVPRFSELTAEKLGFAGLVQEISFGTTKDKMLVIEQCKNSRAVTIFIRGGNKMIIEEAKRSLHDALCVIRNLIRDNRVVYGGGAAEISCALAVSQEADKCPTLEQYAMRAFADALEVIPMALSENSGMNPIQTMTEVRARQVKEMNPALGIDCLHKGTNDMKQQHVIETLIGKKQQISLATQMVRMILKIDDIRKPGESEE

Compound: CC[C@H](C)[C@H](NC(=O)[C@H](CCSC)NC(=O)[C@H](CCCNC(=N)N)NC(=O)[C@@H](NC(=O)[C@H](CCSC)NC(=O)[C@H](CCC(N)=O)NC(=O)CCCN(C)C(=O)c1ccccc1-c1c2ccc(=N)c(S(=O)(=O)O)c-2oc2c(S(=O)(=O)O)c(N)ccc12)C(C)C)C(=O)N[C@@H](CC(C)C)C(=O)N[C@@H](CCCCN)C(=O)N[C@H](C(=O)N[C@@H](CC(=O)O)C(=O)N[C@@H](CC(=O)O)C(=O)N[C@H](C(=O)N[C@@H](CCCNC(=N)N)C(=O)N[C@@H](CCCCN)C(=O)N1CCC[C@H]1C(=O)NCC(=O)N[C@@H](CCC(=O)O)C(=O)N[C@@H](CO)C(=O)N[C@@H](CCC(=O)O)C(=O)N[C@@H](CCC(=O)O)C(=O)O)[C@@H](C)CC)[C@@H](C)CC [^488CCT5_20] (X1-[NMeGABA]QMVRMILKIDDIRKPGESEE-OH; C-terminus assumed)
- binding to DCAF12 Lys108Ala mutant (in words) [1]: failed to bind
- binding to DCAF12 His144Ala mutant (in words) [2]: failed to bind
- binding to DCAF12 Arg344Ala mutant (in words) [3]: failed to bind
- binding to DCAF12 Arg256Ala mutant (in words) [4]: abolished; also recorded: failed to bind
- binding to DCAF12 Arg203Ala mutant (in words) [5]: abrogated substrate binding

Compound: AIRKPGESEE [CCT510 D532A]
- IC50 (DDB1‐DCAF12 [6]): 222 ± 25 nM

Compound: CCT5 (1–529): CCT5 mutant without the 12 C‐terminal residues
- binding to DDB1-DCAF12 in pull-down (in words) (DDB1‐DCAF12 [7]): did not bind

Compound: CCT5: purified recombinant full‐length human CCT5, a subunit of the TRiC chaperonin, monomeric
- binding to DDB1-DCAF12 in pull-down (in words) (DDB1‐DCAF12 [7]): efficiently bound

Compound: CCT5_(10) peptide Glu532Ala (from UniProt P48643 532-541)
- IC50 [8]: 222 nM

Compound: DARKPGESEE [CCT510 I533A]
- IC50 (DDB1‐DCAF12 [6]): 209 ± 25 nM

Compound: DIAKPGESEE [CCT510 R534A]
- IC50 (DDB1‐DCAF12 [6]): 395 ± 68 nM

Compound: DIRAPGESEE [CCT510 K535A]
- IC50 (DDB1‐DCAF12 [6]): 208 ± 26 nM

Compound: DIRKAGESEE [CCT510 P536A]
- IC50 (DDB1‐DCAF12 [6]): 417 ± 53 nM

Compound: DIRKPGASEE [CCT510 E538A]
- IC50 (DDB1‐DCAF12 [6]): 571 ± 103 nM

Compound: DIRKPGEAEE [CCT510 S539A]
- IC50 (DDB1‐DCAF12 [6]): 125 ± 15 nM

Compound: DIRKPGESAE [CCT510 E540A]
- IC50 (DDB1‐DCAF12 [6]; IC50, TR-FRET competition against TbDDB1-DCAF12^488, n = 3): > 50000 nM

Compound: DIRKPGESEE [CCT5_10]
- IC50 (DDB1‐DCAF12 [6]): 363 ± 78 nM

Compound: EGWRLFKIDKEYLLKMATEE [SAT1_20]
- IC50 (DDB1‐DCAF12 [6]): 291 ± 38 nM

Compound: TRiC: recombinant ~ 1 MDa human TRiC chaperonin complex of eight co‐expressed subunits
- IC50 (DDB1‐DCAF12 [6]; TR-FRET competition against TbDDB1-DCAF12^488, n = 3): > 10000 nM
